Assay results reported in US10004701B2, “Methods and compositions for treating infection” (UNIVERSITY OF ROCHESTER, priority 2012, dated 2018).
Where a name gives a salt, the structure may show the parent alone. Read-outs that look alike come from different tables or passages of the source.

Tests used:
Experiment in all cases: AK assay 384-well format, Prestwick library screening
[1] = test system: A. baumannii strain 98-37-09; assay type: cell-based, Acinetobacter baumannii; details: 50 μM final drug concentration; for fold induction at 50 µM: Acinetobacter baumannii, 983709, 3 h
[2] = test system: S. aureus strain USA300-0114; assay type: cell-based, Staphylococcus aureus; details: 50 μM final drug concentration; for fold induction at 50 µM: Staphylococcus aureus, USA300, 3 h
K. pneumoniae = assay type: cell-based, Klebsiella pneumoniae; details: 50 μM final drug concentration; for fold induction at 50 µM: Klebsiella pneumoniae, 3 h
P. aeruginosa = assay type: cell-based, Pseudomonas aeruginosa; details: 50 μM final drug concentration; for fold induction at 50 µM: Pseudomonas aeruginosa, 3 h
E. coli = assay type: cell-based, Escherichia coli; details: 50 μM final drug concentration; for fold induction at 50 µM: Escherichia coli, 3 h
E. faecium = assay type: cell-based, Enterococcus faecium; details: 50 μM final drug concentration; for fold induction at 50 µM: Enterococcus faecium, 3 h
E. cloacae = assay type: cell-based, Enterobacter cloacae; details: 50 μM final drug concentration; for fold induction at 50 µM: Enterobacter cloacae, 3 h
[3] = planktonic, cutoff for positive-scoring molecules 3-fold increase, read-out: AK-based Prestwick Library Screening Results, A. baumannii (fold increase in extracellular AK activity)
[4] = planktonic, cutoff for positive-scoring molecules 3-fold increase, read-out: AK-based Prestwick Library Screening Results, S. aureus (fold increase in extracellular AK activity)
[5] = planktonic, cutoff for positive-scoring molecules 3-fold increase, read-out: AK-based Prestwick Library Screening Results, K. pneumoniae (fold increase in extracellular AK activity)
[6] = planktonic, cutoff for positive-scoring molecules 3-fold increase, read-out: AK-based Prestwick Library Screening Results, P. aeruginosa (fold increase in extracellular AK activity)
[7] = planktonic, cutoff for positive-scoring molecules 3-fold increase, read-out: AK-based Prestwick Library Screening Results, E. coli (fold increase in extracellular AK activity)
[8] = planktonic, cutoff for positive-scoring molecules 3-fold increase, read-out: AK-based Prestwick Library Screening Results, E. faecium (fold increase in extracellular AK activity)
[9] = planktonic, cutoff for positive-scoring molecules 3-fold increase, read-out: AK-based Prestwick Library Screening Results, E. cloacae (fold increase in extracellular AK activity)
[10] = 384-well format, cutoff for positive-scoring molecules 3-fold increase, read-out: AK-based Prestwick Library Screening Results, A. baumannii (increase in extracellular AK activity)
[11] = 384-well format, cutoff for positive-scoring molecules 3-fold increase, read-out: AK-based Prestwick Library Screening Results, S. aureus (increase in extracellular AK activity)
[12] = 384-well format, cutoff for positive-scoring molecules 3-fold increase, read-out: AK-based Prestwick Library Screening Results, K. pneumoniae (increase in extracellular AK activity)
[13] = 384-well format, cutoff for positive-scoring molecules 3-fold increase, read-out: AK-based Prestwick Library Screening Results, P. aeruginosa (increase in extracellular AK activity)
[14] = 384-well format, cutoff for positive-scoring molecules 3-fold increase, read-out: AK-based Prestwick Library Screening Results, E. coli (increase in extracellular AK activity)
[15] = 384-well format, cutoff for positive-scoring molecules 3-fold increase, read-out: AK-based Prestwick Library Screening Results, E. faecium (increase in extracellular AK activity)
[16] = 384-well format, cutoff for positive-scoring molecules 3-fold increase, read-out: AK-based Prestwick Library Screening Results, E. cloacae (increase in extracellular AK activity)

Structure (SMILES): COc1c2ccoc2nc2c(OC)c(OCC(O)C(C)(C)O)ccc12 (stereo not shown) [Evoxine]
- fold induction at 50 µM [1, 3]: 0.7
- fold induction at 50 µM [2, 4]: 0.6
- fold induction at 50 µM (K. pneumoniae; [5]): 0.7
- fold induction at 50 µM (P. aeruginosa; [6]): 0.8
- fold induction at 50 µM (E. coli; [7]): 0.7
- fold induction at 50 µM (E. faecium; [8]): 0.8
- fold induction at 50 µM (E. cloacae; [9]): 1.1

Structure (SMILES): COc1ccc2cc([C@H](C)C(=O)O)ccc2c1 [Naproxen]
- fold induction at 50 µM [1, 10]: 1.1
- fold induction at 50 µM [2, 11]: 0.8
- fold induction at 50 µM (K. pneumoniae; [12]): 0.9
- fold induction at 50 µM (P. aeruginosa; [13]): 1
- fold induction at 50 µM (E. coli; [14]): 1.2
- fold induction at 50 µM (E. faecium; [15]): 1
- fold induction at 50 µM (E. cloacae; [16]): 1.4

Structure (SMILES): Cc1onc(-c2c(Cl)cccc2Cl)c1C(=O)N[C@@H]1C(=O)N2[C@@H]1SC(C)(C)[C@@H]2C(=O)O [Dicloxacillin sodium salt]
- fold induction at 50 µM ([1]; planktonic, cutoff for positive 3-fold increase, read-out: AK-based Prestwick Library Screening Results, A. baumannii (fold increase in extracellular AK activity)): 1.5
- fold induction at 50 µM ([2]; planktonic, cutoff for positive 3-fold increase, read-out: AK-based Prestwick Library Screening Results, S. aureus (fold increase in extracellular AK activity)): 7.1
- fold induction at 50 µM (K. pneumoniae; planktonic, cutoff for positive 3-fold increase, read-out: AK-based Prestwick Library Screening Results, K. pneumoniae (fold increase in extracellular AK activity)): 0.9
- fold induction at 50 µM (P. aeruginosa; planktonic, cutoff for positive 3-fold increase, read-out: AK-based Prestwick Library Screening Results, P. aeruginosa (fold increase in extracellular AK activity)): 1.4
- fold induction at 50 µM (E. coli; planktonic, cutoff for positive 3-fold increase, read-out: AK-based Prestwick Library Screening Results, E. coli (fold increase in extracellular AK activity)): 1.2
- fold induction at 50 µM (E. faecium; planktonic, cutoff for positive 3-fold increase, read-out: AK-based Prestwick Library Screening Results, E. faecium (fold increase in extracellular AK activity)): 1
- fold induction at 50 µM (E. cloacae; planktonic, cutoff for positive 3-fold increase, read-out: AK-based Prestwick Library Screening Results, E. cloacae (fold increase in extracellular AK activity)): 1.2

Structure (SMILES): O=c1n(CCCN2CCN(c3cccc(Cl)c3)CC2)nc2ccccn12 [Trazodone hydrochloride]
- fold induction at 50 µM ([1]; planktonic A. baumannii, 384-well, cutoff for positive-scoring molecules 3-fold increase, read-out: AK-based Prestwick Library Screening Results: A. baumannii (increase in extracellular AK activity)): 1
- fold induction at 50 µM ([2]; planktonic S. aureus, 384-well, cutoff for positive-scoring molecules 3-fold increase, read-out: AK-based Prestwick Library Screening Results: S. aureus (increase in extracellular AK activity)): 0.9
- fold induction at 50 µM (K. pneumoniae; planktonic K. pneumoniae, 384-well, cutoff for positive-scoring molecules 3-fold increase, read-out: AK-based Prestwick Library Screening Results: K. pneumoniae (increase in extracellular AK activity)): 1
- fold induction at 50 µM (P. aeruginosa; planktonic P. aeruginosa, 384-well, cutoff for positive-scoring molecules 3-fold increase, read-out: AK-based Prestwick Library Screening Results: P. aeruginosa (increase in extracellular AK activity)): 1.2
- fold induction at 50 µM (E. coli; planktonic E. coli, 384-well, cutoff for positive-scoring molecules 3-fold increase, read-out: AK-based Prestwick Library Screening Results: E. coli (increase in extracellular AK activity)): 0.9
- fold induction at 50 µM (E. faecium; planktonic E. faecium, 384-well, cutoff for positive-scoring molecules 3-fold increase, read-out: AK-based Prestwick Library Screening Results: E. faecium (increase in extracellular AK activity)): 1
- fold induction at 50 µM (E. cloacae; planktonic E. cloacae, 384-well, cutoff for positive-scoring molecules 3-fold increase, read-out: AK-based Prestwick Library Screening Results: E. cloacae (increase in extracellular AK activity)): 1.3

Structure (SMILES): CCn1cc(C(=O)O)c(=O)c2cc3c(cc21)OCO3 [Oxolinic acid]
- fold induction at 50 µM [1, 10]: 2.3
- fold induction at 50 µM [2, 11]: 1
- fold induction at 50 µM (K. pneumoniae; [12]): 1.6
- fold induction at 50 µM (P. aeruginosa; [13]): 1
- fold induction at 50 µM (E. coli; [14]): 13.1
- fold induction at 50 µM (E. faecium; [15]): 1.1
- fold induction at 50 µM (E. cloacae; [16]): 4.3

Structure (SMILES): O=c1cc(-c2ccc(O)c(O)c2)oc2cc(O)cc(O)c12 [Luteolin]
- fold induction at 50 µM ([1]; cutoff for positive-scoring molecules 3-fold increase, read-out: AK-based Prestwick Library Screening Results, A. baumannii (fold increase in extracellular AK activity)): 0.3
- fold induction at 50 µM ([2]; cutoff for positive-scoring molecules 3-fold increase, read-out: AK-based Prestwick Library Screening Results, S. aureus (fold increase in extracellular AK activity)): 0.2
- fold induction at 50 µM (K. pneumoniae; cutoff for positive-scoring molecules 3-fold increase, read-out: AK-based Prestwick Library Screening Results, K. pneumoniae (fold increase in extracellular AK activity)): 0.5
- fold induction at 50 µM (P. aeruginosa; cutoff for positive-scoring molecules 3-fold increase, read-out: AK-based Prestwick Library Screening Results, P. aeruginosa (fold increase in extracellular AK activity)): 0.5
- fold induction at 50 µM (E. coli; cutoff for positive-scoring molecules 3-fold increase, read-out: AK-based Prestwick Library Screening Results, E. coli (fold increase in extracellular AK activity)): 0.4
- fold induction at 50 µM (E. faecium; cutoff for positive-scoring molecules 3-fold increase, read-out: AK-based Prestwick Library Screening Results, E. faecium (fold increase in extracellular AK activity)): 0.5
- fold induction at 50 µM (E. cloacae; cutoff for positive-scoring molecules 3-fold increase, read-out: AK-based Prestwick Library Screening Results, E. cloacae (fold increase in extracellular AK activity)): 1.6

Structure (SMILES): O=C1CN(/N=C/c2ccc([N+](=O)[O-])o2)C(=O)N1 [Nitrofurantoin]
- fold induction at 50 µM [1, 10]: 0.5
- fold induction at 50 µM [2, 11]: 0.4
- fold induction at 50 µM (K. pneumoniae; [12]): 0.8
- fold induction at 50 µM (P. aeruginosa; [13]): 0.4
- fold induction at 50 µM (E. coli; [14]): 0.4
- fold induction at 50 µM (E. faecium; [15]): 1
- fold induction at 50 µM (E. cloacae; [16]): 0.6

Structure (SMILES): CC(=O)O[C@H]1C[C@H](O[C@H]2[C@@H](O)C[C@H](O[C@H]3[C@@H](O)C[C@H](O[C@H]4CC[C@@]5(C)[C@H](CC[C@@H]6[C@@H]5C[C@@H](O)[C@]5(C)[C@@H](C7=CC(=O)OC7)CC[C@]65O)C4)O[C@@H]3C)O[C@@H]2C)O[C@H](C)[C@H]1O[C@@H]1O[C@H](CO)[C@@H](O)[C@H](O)[C@H]1O [Lanatoside C]
- AK-based Prestwick Library Screening Results, A. baumannii (fold increase in extracellular AK activity) ([1]; planktonic, […]): 0.8
- AK-based Prestwick Library Screening Results, S. aureus (fold increase in extracellular AK activity) ([2]; planktonic, […]): 0.7
- AK-based Prestwick Library Screening Results, K. pneumoniae (fold increase in extracellular AK activity) (K. pneumoniae; planktonic, […]): 0.6
- AK-based Prestwick Library Screening Results, P. aeruginosa (fold increase in extracellular AK activity) (P. aeruginosa; planktonic, […]): 0.6
- AK-based Prestwick Library Screening Results, E. coli (fold increase in extracellular AK activity) (E. coli; planktonic, […]): 0.6
- AK-based Prestwick Library Screening Results, E. faecium (fold increase in extracellular AK activity) (E. faecium; planktonic, […]): 0.9
- AK-based Prestwick Library Screening Results, E. cloacae (fold increase in extracellular AK activity) (E. cloacae; planktonic, […]): 1.0

Structure (SMILES): CC[C@H]1CN2CCc3cc(OC)c(OC)cc3[C@@H]2C[C@@H]1C[C@H]1NCCc2cc(OC)c(OC)cc21 [Emetine dihydrochloride]
- fold induction at 50 µM ([1]; planktonic A. baumannii, cutoff for positive-scoring molecules 3-fold increase, read-out: AK-based Prestwick Library Screening Results, A. baumannii (increase in extracellular AK activity)): 0.5
- fold induction at 50 µM ([2]; planktonic S. aureus, cutoff for positive-scoring molecules 3-fold increase, read-out: AK-based Prestwick Library Screening Results, S. aureus (increase in extracellular AK activity)): 0.5
- fold induction at 50 µM (K. pneumoniae; planktonic K. pneumoniae, cutoff for positive-scoring molecules 3-fold increase, read-out: AK-based Prestwick Library Screening Results, K. pneumoniae (increase in extracellular AK activity)): 0.6
- fold induction at 50 µM (P. aeruginosa; planktonic P. aeruginosa, cutoff for positive-scoring molecules 3-fold increase, read-out: AK-based Prestwick Library Screening Results, P. aeruginosa (increase in extracellular AK activity)): 0.5
- fold induction at 50 µM (E. coli; planktonic E. coli, cutoff for positive-scoring molecules 3-fold increase, read-out: AK-based Prestwick Library Screening Results, E. coli (increase in extracellular AK activity)): 0.5
- fold induction at 50 µM (E. faecium; planktonic E. faecium, cutoff for positive-scoring molecules 3-fold increase, read-out: AK-based Prestwick Library Screening Results, E. faecium (increase in extracellular AK activity)): 0.9
- fold induction at 50 µM (E. cloacae; planktonic E. cloacae, cutoff for positive-scoring molecules 3-fold increase, read-out: AK-based Prestwick Library Screening Results, E. cloacae (increase in extracellular AK activity)): 0.5

Structure (SMILES): CC(=O)[C@H]1CC[C@H]2[C@@H]3C=CC4=CC(=O)CC[C@@]4(C)[C@@H]3CC[C@]12C [Dydrogesterone]
- fold induction at 50 µM [1, 3]: 0.8
- fold induction at 50 µM [2, 4]: 0.7
- fold induction at 50 µM (K. pneumoniae; [5]): 0.8
- fold induction at 50 µM (P. aeruginosa; [6]): 0.9
- fold induction at 50 µM (E. coli; [7]): 0.9
- fold induction at 50 µM (E. faecium; [8]): 1
- fold induction at 50 µM (E. cloacae; [9]): 1.2
